Results: patent US20260327628A1, “AN RNA APTAMER THAT BINDS TO ASP7967 OR AN ANALOGUE THEREOF” (priority 2022, published 2026)
“Also recorded” adds a separate entry of the source.

Key:
[1] = system: aptazyme-based riboswitches (AC17-4); test: cells; assay type: cell-based; details: Homo sapiens, 48 h; ligand as low as 5 μM in culture medium, HEK293 cells; read-out: activation of gene expression
Protocol: HEK293 cells were cultured in Dulbecco's modified Eagle's medium (DMEM) supplemented with 10% heat-inactivated FBS (Gibco) containing 2 mM L-glutamine and 100 units ml^−1 of penicillin-streptomycin (DMEM-FBS). Cells were kept in a 37° C. incubator with 5% CO2 and passaged regularly upon reaching 90% confluency. Approximately 20 h prior to transfection, the cells were trypsinized, diluted to ~2.7×10^5 cells ml^−1 and 100 μl per well were seeded onto a 96-well plate. Cells in each well were cotransfected with 100 ng of the EGFP-aptazyme plasmid and 20 ng of pCMV-mCherry^27 (transfection control) using 0.3 μl of TransIT-293 Transfection Reagent (Mirus) according to the manufacturer's instructions. […] Forty-eight hours after transfection, the medium in each well was replaced with 100 μl of phosphate buffered saline (PBS), and fluorescence intensity was measured by Infinite M1000 PRO microplate reader (Tecan). Fluorescence intensity was measured at 484 nm excitation/510 nm emission/5 nm bandwidth for EGFP, and at 587 nm excitation/610 nm emission/10 nm bandwidth for mCherry. Background fluorescence measured using untransfected cells was subtracted from the EGFP and mCherry fluorescence values. Then, EGFP fluorescence was normalized by mCherry fluorescence to account for variations in transfection efficiency and cell counts. […]

HEK293 cells = test: MTT (cell proliferation) assay; assay type: cell-based; details: up to 10 μM, 18 h
Protocol: MTT assay was performed using MTT Cell Count Kit (Nacalai Tesque). HEK293 cells were trypsinized, diluted to 2.4×10^5 cells ml^−1 and 100 μl per well were seeded onto a 96-well plate. The cells were cultured for 24 h at 37° C. under 5% CO2. The medium was replaced with fresh medium (DMEM-FBS with 0.1% (v/v) DMSO) with 0, 2, 5, or 10 μM of ASP2905 or ASP7967. The cells were cultured for additional 18 h at 37° C. under 5% CO2. Subsequently, 10 μl of MTT solution was added to each well, and the cells were incubated for 3 h at 37° C. under 5% CO2. Next, 100 μl of the Solubilization Solution was added to each well. To dissolve the precipitated formazan, the plate was incubated for 2 h at 37° C. Absorbance at 570 nm (reference wavelength: 700 nm) was measured by Infinite M1000 PRO microplate reader (Tecan). The reported values are averages of four replicate wells. The assay was repeated three times to ensure reproducibility.

[2] = system: potassium channel Kv12.2 encoded by the Kcnh3/BEC1 gene; details: cited from earlier work

| Compound | fold induction at 5 µM [1] | effect on cell proliferation / cellular toxicity (HEK293 cells) | effect on cell proliferation / cellular toxicity (HEK293 cells; listed as ASP2095) | inhibition of Kv12.2 (KCNH3) in words [2] |
| --- | --- | --- | --- | --- |
| Fc1ccc(Nc2nc(NCc3ncccn3)nc(Nc3ccccc3)n2)cc1 [ASP2905, reference compound] | > 10 | not significantly affected | No cellular toxicity up to 10 μM was observed; also recorded: not cytotoxic | potent and selective inhibitor; also recorded: known inhibitor |
| Fc1ccc(Nc2nc(NCc3ncccn3)nc(Nc3ccc(F)cc3)n2)cc1 [ASP7967] | > 10 | not significantly affected; also recorded: No cellular toxicity up to 10 μM was observed; also recorded: not cytotoxic | – | – |
